Molecules are shown by their SMILES. Where a name gives a salt, the structure may show the parent alone.

The target of the first assay is T1, human α2C receptor (Homo sapiens, UniProt P18825).
T1 construct: expressed in transfected cells; host or cells: CHO cells, also recombinantly expressing chimeric G protein Gαqi3 and mitochondrial obelin (mtOb)
T1 sequence (P18825 1-462): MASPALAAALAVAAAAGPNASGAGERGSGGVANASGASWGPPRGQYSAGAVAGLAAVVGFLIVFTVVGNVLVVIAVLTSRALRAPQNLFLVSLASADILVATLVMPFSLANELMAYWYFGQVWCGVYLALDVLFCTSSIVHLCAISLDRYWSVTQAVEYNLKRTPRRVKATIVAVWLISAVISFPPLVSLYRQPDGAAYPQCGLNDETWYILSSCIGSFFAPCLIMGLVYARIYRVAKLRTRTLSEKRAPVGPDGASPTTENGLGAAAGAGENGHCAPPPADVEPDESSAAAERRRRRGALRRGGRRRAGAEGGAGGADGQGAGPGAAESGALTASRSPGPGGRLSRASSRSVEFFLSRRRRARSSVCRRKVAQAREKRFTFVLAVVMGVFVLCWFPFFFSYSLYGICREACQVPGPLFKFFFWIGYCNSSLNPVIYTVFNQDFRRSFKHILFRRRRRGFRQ
Nature of the assay: Antagonism against the adrenoreceptor α2C (luminescence, recombinant CHO cell line). The assay is classed as cell-based.
Conditions: not given
In outline: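 CHO cells expressing human α2C receptor with chimeric Gαqi3 and mitochondrial obelin, loaded with 2.5 μg/ml coelenterazine for one day at 30 °C.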
As to `CNCC1(c2ccc(C(=O)N3CCC(N4CCCC(C)C4)CC3)cc2)CCC1` (stereo not drawn) [Example 68, (4-{1-[(Methylamino)methyl]cyclobutyl}phenyl) (3-methyl-1,4′-bipiperidin-1′-yl)methanone trifluoroacetic acid salt], the IC50 amounted to 4 nM.

Still in this assay, the particulars now being: antagonism against adrenoreceptor α2C; noradrenaline 20 nM; tested up to 10 μM; read-out: IC50.
Regarding `CC1CCCN(C2CCN(C(=O)c3ccc(C(=O)N(C)C4CCCCC4)cc3)CC2)C1` (stereo not drawn) [Example 49, N-cyclohexyl-N-methyl-4-[(3-methyl-1,4′-bipiperidin-1′-yl)carbonyl] benzamide], the IC50 amounted to 348 nM. On to `CCC1CCCN(C2CCN(C(=O)c3ccc(C(C)(C)O)cc3)CC2)C1` (single isomer, unassigned; enantiomer 1) [Example 115, [3-Ethyl-1,4′-bipiperidin-1′-yl][4-(2-hydroxypropan-2-yl)phenyl]methanone (enantiomer 1)], for which the IC50 is 22 nM. Still for that read-out and setting: as for `CC1CCCN(C2CCN(C(=O)c3ccc(C4(C)COC4)cc3)CC2)C1` (stereo not drawn) [Example 25, (3-Methyl-1,4′-bipiperidin-1′-yl) [4-(3-methyloxetan-3-yl)phenyl]methanone], the figure is 101 nM; as for `Cc1nnc(C2CCCN(C3CCN(C(=O)c4ccc(C(C)(C)C)cc4)CC3)C2)o1` (stereo not drawn) [Example 18, (4-tert-Butylphenyl) [3-(5-methyl-1,3,4-oxadiazol-2-yl)-1,4′-bipiperidin-1′-yl]methanone], 129 nM; as for `CCOC[C@@H]1CCCN(C2CCN(C(=O)c3ccc(C(C)(C)O)cc3)CC2)C1` (single isomer, unassigned; enantiomer 2) [Example 121, [3-(Ethoxymethyl)-1,4′-bipiperidin-1′-yl][4-(2-hydroxypropan-2-yl)phenyl]methanone (enantiomer 2)], 5 nM. As to `C[C@@H]1CCCN(C2CCN(C(=O)c3ccc(C(=O)NC(C)(C)C)cc3Cl)CC2)C1` [Example 101, N-tert-Butyl-3-chloro-4-{[(3R)-3-methyl-1,4′-bipiperidin-1′-yl]carbonyl}benzamide formic acid salt], the IC50 was 21 nM. Same read-out and setting: the same measure for `CC(C)(O)c1ccc(C(=O)N2CCC(N3CCCC(c4nnc(C5CC5)[nH]4)C3)CC2)cc1` (stereo not drawn) [Example 60, [3-(5-Cyclopropyl-4H-1,2,4-triazol-3-yl)-1,4′-bipiperidin-1′-yl][4-(2-hydroxypropan-2-yl)phenyl]methanone]: 45 nM.

As to `C[C@@H]1CCCN(C2CCN(C(=O)c3ccc(C(=O)NC(CCO)c4ccccc4F)cc3)CC2)C1` (stereo partly drawn) [Example 89, N-[1-(2-Fluorophenyl)-3-hydroxypropyl]-4-{[(3R)-3-methyl-1,4′-bipiperidin-1′-yl]carbonyl}benzamide trifluoroacetic acid salt], the 50% inhibitory concentration (IC50) is 17 nM.

For `CC1CCCN(C2CCN(C(=O)c3ccc(C(=O)NC(CO)Cc4ccc(Cl)cc4)cc3)CC2)C1` (stereo not drawn) [Example 53, N-[1-(4-chlorophenyl)-3-hydroxypropan-2-yl]-4-[(3-methyl-1,4′-bipiperidin-1′-yl)carbonyl]benzamide], the IC50 was found to be 198 nM.

On to `CC1CCCN(C2CCN(C(=O)c3ccc(C(=O)NCc4ccncc4)cc3)CC2)C1` (stereo not drawn) [Example 45, 4-[(3-methyl-1,4′-bipiperidin-1′-yl)carbonyl]-N-(pyridin-4-yl-methyl) benzamide], for which the IC50 was 82 nM. On the same count and under the same terms, as for `CC(C)(O)c1ccc(C(=O)N2CCC(N3CCCC(COC4CCC4)C3)CC2)cc1` (racemic) [Example 116, {3-[(Cyclobutyloxy)methyl]-1,4′-bipiperidin-1′-yl}[4-(2-hydroxypropan-2-yl)phenyl]methanone (racemate)], the figure is 7 nM; as for `CCOC(=O)C1CCCN(C2CCN(C(=O)c3ccc(C(C)(C)C)cc3)CC2)C1` (stereo not drawn) [Example 1, Ethyl 1′-[(4-tert-butylphenyl)carbonyl]-1,4′-bipiperidine-3-carboxylate], 38 nM; as for `CC(c1ccccc1)N(C)C(=O)c1ccc(C(=O)N2CCC(N3CCC[C@@H](C)C3)CC2)cc1` (stereo partly drawn) [Example 43, N-Methyl-4-{[(3R)-3-methyl-1,4′-bipiperidin-1′-yl]carbonyl}-N-(1-phenylethyl)benzamide], 39 nM.

Consider `CC1CCCN(C2CCN(C(=O)c3ccc(C(=O)NC(C)Cn4cccn4)cc3)CC2)C1` (stereo not drawn) [Example 54, 4-[(3-methyl-1,4′-bipiperidin-1′-yl)carbonyl]-N-[1-(1H-pyrazol-1-yl)propan-2-yl]benzamide], for which the half-maximal inhibitory concentration (IC50) worked out at 199 nM.

For the molecule `CCCC(C)NC(=O)c1ccc(C(=O)N2CCC(N3CCCC(C)C3)CC2)cc1` (stereo not drawn) [Example 44, 4-[(3-methyl-1,4′-bipiperidin-1′-yl)carbonyl]-N-(pentan-2-yl)benzamide], the IC50 was 55 nM. The same measure, in the same setting: as for `CC1CCCN(C2CCN(C(=O)c3ccc(C(=O)NCc4cccc(OC(F)(F)F)c4)cc3)CC2)C1` (stereo not drawn) [Example 70, 4-[(3-Methyl-1,4′-bipiperidin-1′-yl)carbonyl]-N-[3-(trifluoromethoxy)benzyl]benzamide trifluoroacetic acid salt], the figure is 190 nM; as for `CC1CCCN(C2CCN(C(=O)c3ccc(C(C)(C)O)cc3)CC2)C1` (stereo not drawn) [Example 7], 538 nM; as for `Cc1cc(CN(C)C(=O)c2ccc(C(=O)N3CCC(N4CCCC(C)C4)CC3)cc2)on1` (stereo not drawn) [Example 50, N-methyl-4-[(3-methyl-1,4′-bipiperidin-1′-yl)carbonyl]-N-[(3-methyl-1,2-oxazol-5-yl)methyl]benzamide], 169 nM.

Turning to `CC(C)(C)OCC1CCCN(C2CCN(C(=O)c3ccc(C(C)(C)O)cc3)CC2)C1` (stereo not drawn) [Example 106, [3-(tert-Butoxymethyl)-1,4′-bipiperidin-1′-yl][4-(2-hydroxypropan-2-yl)phenyl]methanone], the IC50 stood at 35 nM. With `COC(C)(C)c1ccc(C(=O)N2CCC(N3CCCC(COC(C)(C)C)C3)CC2)cc1` (stereo not drawn) [Example 119, [3-(tert-Butoxymethyl)-1,4′-bipiperidin-1′-yl][4-(2-methoxypropan-2-yl)phenyl]methanone], the IC50 was determined as 16 nM. Still for that read-out and setting: as for `CC(C)(O)c1ccc(C(=O)N2CCC(N3CCCC(OCC4CCC4)C3)CC2)cc1` (stereo not drawn) [Example 111, [3-(Cyclobutylmethoxy)-1,4′-bipiperidin-1-yl][4-(2-hydroxypropan-2-yl)phenyl]methanone], the figure is 10 nM; as for `COCC1CCCN(C2CCN(C(=O)c3ccc(C(C)(C)O)cc3)CC2)C1` (single isomer, unassigned; enantiomer 2) [Example 123], 7 nM; as for `CC(C)(C)OCC1CCCN(C2CCN(C(=O)c3ccc(C(C)(C)C)cc3)CC2)C1` (stereo not drawn) [Example 107, [3-(tert-Butoxymethyl)-1,4′-bipiperidin-1′-yl](4-tert-butylphenyl)methanone], 90 nM. Still for that read-out and setting: as for `CC1CCCN(C2CCN(C(=O)c3ccc(C(=O)NC(C)(C)c4ccc(C(F)(F)F)cc4)cc3)CC2)C1` (stereo not drawn) [Example 72, 4-[(3-Methyl-1,4′-bipiperidin-1′-yl)carbonyl]-N-{2-[4-(trifluoromethyl)phenyl]propan-2-yl}benzamide trifluoroacetic acid salt], the figure is 116 nM; as for `CC1CCCN(C2CCN(C(=O)c3ccc(C(=O)NC(C)(C)c4ccc(Cl)cc4)cc3)CC2)C1` (stereo not drawn) [Example 77, N-[2-(4-Chlorophenyl)propan-2-yl]-4-[(3-methyl-1,4′-bipiperidin-1′-yl)carbonyl]benzamide trifluoroacetic acid salt], 54 nM; as for `COC(=O)C(C)(C)c1ccc(C(=O)N2CCC(N3CCCC(C)C3)CC2)c(F)c1` (stereo not drawn) [Example 41, Methyl 2-{3-fluoro-4-[(3-methyl-1,4′-bipiperidin-1′-yl)carbonyl]phenyl}-2-methylpropanoate trifluoroacetic acid salt], 199 nM. `C[C@@H]1CCCN(C2CCN(C(=O)c3ccc(C(=O)N(C)Cc4c(F)cccc4F)cc3)CC2)C1` [Example 84, (R)—N-(2,6-Difluorobenzyl)-N-methyl-4-{[(3R)-3-methyl-1,4′-bipiperidin-1′-yl]carbonyl}benzamide trifluoroacetic acid salt]: the IC50 was found to be 3 nM.

For `CC1CCCN(C2CCN(C(=O)c3ccc(C(C)(C)C)cc3)CC2)C1` (single isomer, unassigned) [Example 6, (4-tert-Butylphenyl)(3-methyl-1,4′-bipiperidin-1′-yl)methanone, (−)-enantiomer], the IC50 was determined as 91 nM. Same read-out and setting: the same measure for `CCOC(=O)C1CCCN(C2CCN(C(=O)c3ccc(C4(C)COC4)cc3)CC2)C1` (stereo not drawn) [Example 26, Ethyl 1′-[4-(3-methyloxetan-3-yl)benzoyl]-1,4′-bipiperidine-3-carboxylate]: 12 nM. On the same count and under the same terms, the same measure for `CCc1nc(C2CCCN(C3CCN(C(=O)c4ccc(C(C)(C)O)cc4)CC3)C2)n[nH]1` (stereo not drawn) [Example 62, [3-(5-Ethyl-1H-1,2,4-triazol-3-yl)-1,4′-bipiperidin-1′-yl][4-(2-hydroxypropan-2-yl)phenyl]methanone]: 154 nM. Still for that read-out and setting: as for `CC1CCCN(C2CCN(C(=O)c3ccc(C(C)C)cc3)CC2)C1` (stereo not drawn) [Example 4, (4-Isopropylphenyl)(3-methyl-1,4′-bipiperidin-1′-yl)methanone], the figure is 294 nM; as for `CCOC(=O)c1ccc(C(=O)N2CCC(N3CCCC(C(=O)OCC)C3)CC2)cc1` (stereo not drawn) [Example 2, 3-(Ethoxycarbonyl)-1-{1-[4-(ethoxycarbonyl)benzoyl]piperidin-4-yl}piperidine trifluoroacetic acid salt], 120 nM.

Broadly, the IC50 is the concentration that inhibits the measured activity by half.

The values above are taken from patent US20160318866A1, “SUBSTITUTED BIPIPERIDINYL DERIVATIVES” (Bayer Pharma Aktiengesellschaft, priority 2013, published 2016).
